Test results taken from US20210308120A1, “Use of Amitriptyline for Blocking Brain Hemichannels and Method for Potentiating its Effect in Vivo” (THERANEXUS, priority 2015, published 2021).

How the values were obtained:
[1] = rats; cited from earlier work
[2] = system: SN-CCI rats (neuropathic pain, hyperalgesia); test: Randall & Selitto test in SN-CCI rats, chronic 14-day administration; assay type: in vivo, rat; details: amitriptyline 12 mg/kg s.c. osmotic pump; mefloquine 0.5 mg/kg i.p. twice a day; 14 days; vs saline
Text: Data are the means±S.E.M. of n=8-14 rats.
Data are the means±S.E.M. of n=8-14 rats. *p<0.05, **p<0.01, ***p<0.001 as compared with “saline+saline” group at the same time, ≠p<0.05 as compared between amitriptyline groups, two-way ANOVA, Bonferroni test.
(§1) One week after their arrival, rats were anesthetized with sodium pentobarbital before exposing the common sciatic nerve. As described in Bennett's article, four chromic catgut (5-0) ligations were tied loosely proximally to the sciatic trifurcation (Bennett and Xie, 1988).
(§2) All behavioral assessments were conducted between 9 a.m. and 5 p.m. in a quiet room. An increasing pressure was applied to the right hind paw of SN-CCI (Sciatic Nerve-Chronic Constriction Injury) rat to evaluate hyperalgesia-like behavior (Viguier and al, 2013). Values correspond to the pressure threshold producing the paw withdrawal and then the vocalization of the rat.
(§3) Osmotic mini-pumps (Alzet, model 2ML2), delivering for the following 14 days amitriptyline or vehicle were subcutaneously implanted.
a) Rats were ligated on sciatic nerve and then tested with the Randall & Selitto test 14 days after surgery, to evaluate hyperalgesia quantified as pressure threshold. Neuropathic rats, characterized by a decrease of pressure threshold after surgery, were then treated during 14 days and tested by the Randall & Selitto test during this period.

[3] = Pharmacokinetic of amitriptyline in brain and serum of SN-CCI rats; assay type: in vivo, rat; details: amitriptyline 12 mg/kg osmotic pump ± mefloquine 0.5 mg/kg i.p. bidaily, 14 days
Procedure: Blood was collected and kept 1 hour at 4° C. Then serum and brain were collected. Amitriptyline was quantified by HPLC and mass spectrometry (Crepta laboratory).
as §3
After 14-day treatment, so 28 days after surgery, rats were sacrificed and brain as well as serum samples were collected to quantify amitriptyline.

[4] = Pharmacokinetics of amitriptyline/mefloquine in plasma and brain of mice (LC-MS); assay type: in vivo, mouse; details: amitriptyline 6, 12 mg/kg, mefloquine 0.1, 0.3, 1 mg/kg i.p., 18 days, 2 hours after injection
Procedure: Data are presented as mean±SEM.
Adult male C57BL/6J mice (Charles River, L'Arbresle, France) were used. Mice were kept in collective cages for habituation to the facility for one week before experimental testing with food and water ad libitum. Mice were maintained on a light/dark cycle of 12 hours with light onset at 8h00 and with a controlled temperature of 21° C.±1° C.
Injections were done twice.
On day 18th of treatment, mice received the morning injection and samplings were done 2 hours after the injection. Mice were anesthetized just before sampling (ketamine 68 mg/kg, xylazine 10 mg/kg) and blood was collected by intracardiac puncture (Vacuette tubes, with lithium/heparin gel). The mouse was then decapitated, and the brain extracted and fast frozen in dry ice.
Vacuette tubes with blood were centrifugated (3000 rpm, 20 min), plasma recovered and stored at −80° C. until shipping in dry ice.

[5] = system: LPS-injected mice (neuro-inflammation); test: LPS-induced model of neuro-inflammation (coat state score, weight loss); assay type: in vivo, mouse; details: amitriptyline 1 mg/kg ± mefloquine 1 mg/kg
Text: FIG. 13 represents the coat state scores evaluated three hours after treatment in a LPS-induced model of neuro-inflammation (left graph). The right graph represents the amount of weight loss between three hours of treatment and just before treatment in a LPS-induced model of neuro-inflammation (right graph). Control mice were ip injected with saline solution. […] In both graphs: n=4-6 mice per group, data are presented as means±SEM and compared with a One-way ANOVA followed by Tukey's post-hoc test, *p<0.05, […] versus CONTROL-treated mice.
Adult Swiss male mice were used in the LPS model. Mice were kept in collective cages for habituation to the facility for one week before experimental testing. Afterwards, they were housed in individual cages two days before the experiment started with food and water ad libitum. Mice were maintained on a light/dark cycle of 12 hours with light onset at 8h00 and with a controlled temperature of 21° C.±1° C. […]
Coat state score was evaluated three hours after treatment. […] The cleanness fur state was evaluated for each of these five body parts. […]
General physiological state of the animals was assessed by the normalised weight loss; defined as the difference between weight measures three hours after treatment (T0+24 h) and just before treatment (T0+21 h).

Cx43 hemichannels = target: T1, Cx43 hemichannels (Mus musculus, UniProt P23242); test: Hemichannel activity by ethidium bromide uptake in LPS-treated mouse cortical astrocyte cultures; assay type: cell-based; details: LPS 1 μg/mL and amitriptyline 5, 10 and 20 μM, 24 hours
T1 construct: Astrocyte cultures were prepared from cortex of rats and mice as previously described; endogenous in cells; host or cells: secondary cultures of mouse cortical astrocytes, LPS-treated
T1 sequence (P23242 whole entry): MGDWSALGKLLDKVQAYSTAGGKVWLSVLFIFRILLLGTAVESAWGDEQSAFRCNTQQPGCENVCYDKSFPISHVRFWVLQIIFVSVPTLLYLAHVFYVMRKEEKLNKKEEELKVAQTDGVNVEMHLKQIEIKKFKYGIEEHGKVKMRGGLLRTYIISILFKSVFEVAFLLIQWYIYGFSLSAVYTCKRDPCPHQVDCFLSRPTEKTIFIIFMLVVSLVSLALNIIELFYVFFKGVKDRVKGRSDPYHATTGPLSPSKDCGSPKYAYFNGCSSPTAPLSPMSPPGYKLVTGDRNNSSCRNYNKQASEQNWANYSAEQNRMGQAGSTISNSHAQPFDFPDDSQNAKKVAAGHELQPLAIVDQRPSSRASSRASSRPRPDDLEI
Procedure: Astrocyte cultures were prepared from cortex of rats and mice as previously described (Meme et al., 2006). Cells were seeded on polyornithine coated 35 mm dishes (5×10^5 cells/dish) or into 100-mm diameter plastic dishes at the density of 3×10^6 cells/dish. After 8-10 days, when cells grown into 35 mm in diameter plastic culture dishes have reached confluence, 1 μM of cytosine-arabinoside was added to the culture medium. In addition, when cells grown into 100 mm plastic culture dishes reached confluence, they were harvested with trypsin-EDTA. Then, cells were re-plated (2×10^5 cells per well), as secondary cultures, on glass coverslips placed inside 24-round-well plate. Finally, they were grown to confluence and cytosine-arabinoside was added. Medium was changed twice a week for all cells until the experiments were carried out. Hemichannel activity was evaluated in secondary cultures of cortical astrocytes by Ethidium Bromide (EtBr) uptake as already published (Orellana et al, 2011). 24 h before experiment, cells were pretreated or not with 1 μg/ml LPS known to open Cx43 HeC. The day of experiment, cells were first preincubated in HEPES buffer solution. Then, cells were exposed to 5 μM EtBr for 10 min at room temperature. Cells were then washed with the same buffer before fixation with 4% paraformaldehyde in PBS. Fixed cells were examined at 40× with a confocal laser-scanning microscope. Stacks of 10 consecutive confocal images taken at 0.49 μm intervals were acquired. For each experimental condition, 6 images were captured and then analyzed with Image J program (NIH software). LPS was added to mouse cortical astrocytic cultures during 24 hours to open Cx43 hemichannels and amitriptyline was also added during the same time to evaluate its action on hemichannel activity, quantified by cell uptake of ethidium bromide.

[6] = system: SN-CCI rats (neuropathic pain, hyperalgesia); test: Randall & Selitto test in SN-CCI rats, repeated administration every 150 minutes; assay type: in vivo, rat; details: amitriptyline alone i.p. every 150 min; at 90 and 240 min
Procedure: as §1, §2

CN(C)CCC=C1c2ccccc2CCc2ccccc21 [amitriptyline, 3-(5,6-dihydrodibenzo[2,1-b:2′,1′-f][7]annulen-11-ylidene)-N,N-dimethylpropan-1-amine]
Half-life [1]: 2.5 h | Paw withdrawal threshold (pressure) [2]: significant increase of the paw withdrawal threshold at day 14 | Vocalization threshold (pressure) [2]: increase of the vocalization threshold | Amitriptyline concentration in brain, with vs without mefloquine [3]: No changes | Amitriptyline concentration in serum, with vs without mefloquine [3]: No changes | Amitriptyline ratio brain/plasma, with vs without mefloquine [3]: no significant difference | Concentrations in blood and brain tissue [4]: dose-dependent | Weight loss ([5]; between just before and three hours after oral treatment): induces a decrease in weight loss | Coat state score (grooming activity) ([5]; three hours after oral treatment, LPS 0.33 mg/kg i.p.): tendency to reduce the deterioration of coat state | HC activity (ethidium bromide uptake) after LPS-induced opening (Cx43 hemichannels): reversed this increase at the three tested doses | Paw withdrawal threshold [6]: did not induce significant effect on its own
